Source: PMC2827632 (Biochemistry, 2010)
Like-named read-outs stand apart in the source and are kept apart here.

How the values were obtained:
[1] = biological target: T1, human Lpd (Homo sapiens, UniProt P09622); assay: Human Lpd DTNB assay; assay type: biochemical; details: for Inhibition of human Lpd (words): concentrations up to 100 μM
T1 sequence (P09622 36-509): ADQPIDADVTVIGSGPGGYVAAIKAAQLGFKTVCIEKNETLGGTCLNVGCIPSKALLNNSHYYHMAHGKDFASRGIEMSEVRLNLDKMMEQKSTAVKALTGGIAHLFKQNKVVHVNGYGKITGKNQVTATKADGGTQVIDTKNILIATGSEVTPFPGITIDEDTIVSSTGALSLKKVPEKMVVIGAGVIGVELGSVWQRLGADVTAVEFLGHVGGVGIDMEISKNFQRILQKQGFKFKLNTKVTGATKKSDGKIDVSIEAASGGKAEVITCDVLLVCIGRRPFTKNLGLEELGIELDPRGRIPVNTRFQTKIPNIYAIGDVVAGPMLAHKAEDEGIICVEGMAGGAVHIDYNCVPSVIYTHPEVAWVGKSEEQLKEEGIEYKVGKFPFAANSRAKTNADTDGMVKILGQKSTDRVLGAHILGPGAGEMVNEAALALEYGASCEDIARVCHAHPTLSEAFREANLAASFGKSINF

[2] = biological target: T2, bovine thioredoxin reductase (Bos taurus, UniProt O62768); assay: Bovine thioredoxin reductase DTNB assay; assay type: biochemical; details: for IC50: DTNB assay, 100 μM NADPH
T2 sequence (O62768 1-499): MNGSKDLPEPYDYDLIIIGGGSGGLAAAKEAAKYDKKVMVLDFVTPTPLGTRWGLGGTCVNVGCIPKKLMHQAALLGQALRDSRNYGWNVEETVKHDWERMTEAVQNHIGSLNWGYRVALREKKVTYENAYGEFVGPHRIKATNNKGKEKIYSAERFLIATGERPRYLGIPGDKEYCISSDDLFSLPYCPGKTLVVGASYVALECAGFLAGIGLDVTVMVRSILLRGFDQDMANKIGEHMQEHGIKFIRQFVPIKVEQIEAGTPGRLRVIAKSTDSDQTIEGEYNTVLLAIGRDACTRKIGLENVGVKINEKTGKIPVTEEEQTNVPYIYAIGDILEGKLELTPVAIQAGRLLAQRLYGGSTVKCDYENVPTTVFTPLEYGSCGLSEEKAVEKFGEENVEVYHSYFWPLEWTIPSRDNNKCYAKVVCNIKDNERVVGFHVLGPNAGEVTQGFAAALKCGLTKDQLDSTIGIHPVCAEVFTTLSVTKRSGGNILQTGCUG

[3] = biological target: T3, bovine Lpd (Bos taurus, UniProt F1N206); assay: Bovine Lpd DTNB assay; assay type: biochemical
T3 sequence (F1N206 36-509): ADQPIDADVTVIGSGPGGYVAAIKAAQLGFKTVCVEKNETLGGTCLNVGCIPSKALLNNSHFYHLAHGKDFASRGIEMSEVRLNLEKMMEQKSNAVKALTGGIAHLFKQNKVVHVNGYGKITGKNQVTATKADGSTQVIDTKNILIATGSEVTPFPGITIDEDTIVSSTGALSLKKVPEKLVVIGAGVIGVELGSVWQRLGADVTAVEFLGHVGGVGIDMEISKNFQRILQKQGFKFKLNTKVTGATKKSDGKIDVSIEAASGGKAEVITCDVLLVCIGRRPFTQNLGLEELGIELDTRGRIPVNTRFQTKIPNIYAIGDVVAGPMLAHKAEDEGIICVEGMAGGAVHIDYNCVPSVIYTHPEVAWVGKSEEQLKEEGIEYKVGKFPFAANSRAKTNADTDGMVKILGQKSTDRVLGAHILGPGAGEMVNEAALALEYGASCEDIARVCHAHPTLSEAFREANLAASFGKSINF

[4] = biological target: T4, porcine PDHC (Sus scrofa, UniProt P09623); assay: Porcine PDHC assay; assay type: biochemical
T4 sequence (P09623 36-509): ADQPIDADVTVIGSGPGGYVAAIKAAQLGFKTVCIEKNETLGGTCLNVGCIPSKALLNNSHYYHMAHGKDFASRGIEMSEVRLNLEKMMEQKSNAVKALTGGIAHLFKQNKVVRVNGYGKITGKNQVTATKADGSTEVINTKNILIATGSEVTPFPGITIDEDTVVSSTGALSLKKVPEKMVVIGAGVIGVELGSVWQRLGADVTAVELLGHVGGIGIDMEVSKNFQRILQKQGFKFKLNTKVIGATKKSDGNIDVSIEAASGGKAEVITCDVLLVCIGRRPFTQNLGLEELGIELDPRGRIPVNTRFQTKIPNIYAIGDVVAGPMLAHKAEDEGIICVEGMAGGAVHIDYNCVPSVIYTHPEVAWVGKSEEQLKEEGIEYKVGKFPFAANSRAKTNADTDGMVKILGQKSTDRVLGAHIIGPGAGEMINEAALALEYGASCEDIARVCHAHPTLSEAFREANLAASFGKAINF

[5] = tested on: mouse bone marrow macrophages; assay: cells; assay type: cell-based; details: for EC50: read-out: BMM EC50 (concentration at which viability is reduced to 50%)
[6] = biological target: T1, human Lpd; assay: Human Lpd dihydrolipoamide-NAD+ spectrophotometric assay; assay type: biochemical; details: dihydrolipoamide and NAD+ as substrates, up to 100 μM
[7] = biological target: T5, Mtb Lpd (Mycobacterium tuberculosis, UniProt P9WHH9)
T5 sequence (P9WHH9 1-464): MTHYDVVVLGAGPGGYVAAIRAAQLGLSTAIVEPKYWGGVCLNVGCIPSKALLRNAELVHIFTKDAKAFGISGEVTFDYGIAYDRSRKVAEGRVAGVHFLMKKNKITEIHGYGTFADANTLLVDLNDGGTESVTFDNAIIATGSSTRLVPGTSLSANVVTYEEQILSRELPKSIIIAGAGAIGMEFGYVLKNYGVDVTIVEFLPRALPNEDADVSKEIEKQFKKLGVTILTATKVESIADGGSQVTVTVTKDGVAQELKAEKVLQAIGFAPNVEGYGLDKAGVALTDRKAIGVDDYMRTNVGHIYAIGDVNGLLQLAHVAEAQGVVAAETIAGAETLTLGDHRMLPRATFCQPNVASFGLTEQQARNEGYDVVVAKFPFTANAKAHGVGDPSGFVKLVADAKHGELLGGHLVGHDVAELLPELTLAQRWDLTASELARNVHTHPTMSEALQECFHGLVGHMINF

[8] = biological target: T5, Mtb Lpd; remark: listed apart in the source
[9] = biological target: T6, PDHC activity in Mtb lysates (Mycobacterium tuberculosis, UniProt P9WHH9); assay type: biochemical
T6 sequence (P9WHH9 1-464): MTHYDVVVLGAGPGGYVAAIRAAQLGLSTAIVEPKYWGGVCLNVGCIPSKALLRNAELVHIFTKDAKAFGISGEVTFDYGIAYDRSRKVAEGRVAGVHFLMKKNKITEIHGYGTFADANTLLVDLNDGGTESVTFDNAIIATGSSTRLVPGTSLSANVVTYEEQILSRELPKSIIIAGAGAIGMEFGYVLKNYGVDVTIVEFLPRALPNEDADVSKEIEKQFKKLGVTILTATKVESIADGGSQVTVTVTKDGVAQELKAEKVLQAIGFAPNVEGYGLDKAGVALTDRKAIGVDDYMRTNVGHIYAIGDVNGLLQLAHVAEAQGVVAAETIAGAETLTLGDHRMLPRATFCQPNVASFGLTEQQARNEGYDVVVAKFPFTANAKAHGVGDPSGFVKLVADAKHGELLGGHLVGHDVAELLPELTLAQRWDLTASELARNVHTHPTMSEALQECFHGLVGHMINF

[10] = biological target: T5, Mtb Lpd; remark: listed apart in the source
[11] = biological target: T7, Mtb PDHC (Mycobacterium tuberculosis, UniProt P9WHH9); details: read-out: IC50 Mtb PDHC; PDHC assay
T7 sequence (P9WHH9 1-464): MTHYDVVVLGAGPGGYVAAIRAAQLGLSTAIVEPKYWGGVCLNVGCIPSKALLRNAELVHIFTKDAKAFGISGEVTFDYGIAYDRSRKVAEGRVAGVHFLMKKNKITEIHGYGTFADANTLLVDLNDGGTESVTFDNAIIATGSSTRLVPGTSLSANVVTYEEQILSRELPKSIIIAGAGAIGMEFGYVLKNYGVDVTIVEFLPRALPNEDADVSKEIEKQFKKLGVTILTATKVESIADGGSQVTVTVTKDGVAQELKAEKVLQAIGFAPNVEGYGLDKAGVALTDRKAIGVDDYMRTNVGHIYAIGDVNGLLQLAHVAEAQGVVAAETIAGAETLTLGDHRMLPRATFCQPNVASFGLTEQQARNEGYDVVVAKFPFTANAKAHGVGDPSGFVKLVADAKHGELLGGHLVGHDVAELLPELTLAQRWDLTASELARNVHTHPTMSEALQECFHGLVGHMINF

[12] = biological target: the molecule itself; assay: crystal structure

Question: Which results are given for COc1ccc(C(=O)N2CCC3(CC2)C(=O)N(CC(=O)NCCc2ccc(Cl)cc2Cl)CN3c2ccccc2)c(OC)c1 [compound 5, N-(2,4-dichlorophenethyl)-2-(8-(2,4-dimethoxybenzoyl)-4-oxo-1-phenyl-1,3,8-triazaspiro[4.5]decan-3-yl)acetamide]?
Answer: IC50 [1]: > 100 µM; Inhibition of human Lpd (words) [1]: did not produce any measurable inhibition; Inhibition of human Lpd (words) ([1]; listed as Compound 5): no inhibition; Inhibition of bovine thioredoxin reductase ([2]; Fig. 2C): minimally inhibits; IC50 ([2]; IC50 bTR): 20 µM; IC50 [3]: 100 µM; Inhibition of bovine Lpd ([3]; Fig. 2C): minimally inhibits; IC50 [4]: 100 µM; Inhibition of porcine PDHC ([4]; Fig. 2C): minimally inhibits; Mouse bone marrow macrophage survival ([5]; 100 μM (limit of solubility)): 80%; Toxicity against primary mouse bone marrow macrophages ([5]; Fig. 2C): no toxicity; EC50 ([5]; Mus musculus, Bone marrow macrophage, 24 h): > 100 µM; Inhibition of human Lpd, physiological direction [6]: No inhibition; Mode of inhibition with respect to NADH ([7]; variable NADH 3.33 to 100 μM): noncompetitive; Mode of inhibition with respect to lipoamide ([7]; variable lipoamide): noncompetitive; Inhibition of Mtb Lpd in dihydrolipoamide-NAD+ assay [8]: inhibited; Mode of inhibition with respect to NAD+ ([8]; variable NAD+ 25 μM to 2.5 mM): noncompetitive

Question: Which “Inhibition of human Lpd (words)” value [1] does the source give for COc1ccc(C(=O)N2CCC3(CC2)C(=O)N(CC(=O)NCc2cccc(C(F)(F)F)c2)CN3c2ccccc2)c(OC)c1 [compound 4, 2-(8-(2,4-dimethoxybenzoyl)-4-oxo-1-phenyl-1,3,8-triazaspiro[4.5]decan-3-yl)-N-(3-(trifluoromethyl)benzyl) acetamide] here?
Answer: The value was “did not inhibit”.

Question: What about the IC50 ([1]; read-out: IC50 hLpd, DTNB assay) of the same molecule?
Answer: Its IC50 is over 100 µM.

Question: And the IC50 ([2]; read-out: IC50 bTR)?
Answer: Its IC50 is over 100 µM.

Question: What about the IC50 ([3]; read-out: IC50 bLpd, DTNB assay) of the same molecule?
Answer: Its IC50 is over 100 µM.

Question: What about the IC50 ([4]; read-out: IC50 pPDHC, PDHC assay) of the same molecule?
Answer: Its IC50 is 100 µM.

Question: What about the EC50 [5] of the same molecule?
Answer: Its EC50 is over 100 µM.

Question: What about the “Inhibition of human Lpd, physiological direction” value [6] of the same molecule?
Answer: Its value is “No inhibition”.

Question: And the “IC50 for Lpd activity in Mtb extracts measured by inhibition of PDHC activity” value [9]?
Answer: Its value is “low micromolar range”.

Question: What about the IC50 ([10]; read-out: IC50 Mtb Lpd + BSA, DTNB assay with 100 μg/ml bovine serum albumin) of the same molecule?
Answer: The IC50 was 2.1 µM.

Question: And the IC50 ([10]; read-out: IC50 Mtb Lpd, DTNB assay)?
Answer: The IC50 was 2 µM.

Question: And the IC50 ([7]; read-out: IC50 Mtb Lpd NADH-lipoamide, NADH-lipoamide assay)?
Answer: Its IC50 is 2 µM.

Question: What about the IC50 [11] of the same molecule?
Answer: The IC50 was 7.2 µM.

Question: And the “Inhibition of Mtb Lpd in dihydrolipoamide-NAD+ assay” value [8]?
Answer: Its value is “inhibited”.

B1: Mycobacterium tuberculosis lipoamide dehydrogenase (Lpd), residues 1-464 (enzyme)
chain: MTHYDVVVLGAGPGGYVAAIRAAQLGLSTAIVEPKYWGGVCLNVGCIPSKALLRNAELVHIFTKDAKAFGISGEVTFDYGIAYDRSRKVAEGRVAGVHFLMKKNKITEIHGYGTFADANTLLVDLNDGGTESVTFDNAIIATGSSTRLVPGTSLSANVVTYEEQILSRELPKSIIIAGAGAIGMEFGYVLKNYGVDVTIVEFLPRALPNEDADVSKEIEKQFKKLGVTILTATKVESIADGGSQVTVTVTKDGVAQELKAEKVLQAIGFAPNVEGYGLDKAGVALTDRKAIGVDDYMRTNVGHIYAIGDVNGLLQLAHVAEAQGVVAAETIAGAETLTLGDHRMLPRATFCQPNVASFGLTEQQARNEGYDVVVAKFPFTANAKAHGVGDPSGFVKLVADAKHGELLGGHLVGHDVAELLPELTLAQRWDLTASELARNVHTHPTMSEALQECFHGLVGHMINF
Question: Does B1 bind [12]?
Answer: Result: binds
